Columns and labels:
[1] = Plasma protein binding by equilibrium dialysis; details: mouse plasma
Procedure: (§3) Analysis of Plasma Protein Binding and Stability in Human and Mouse Blood Plasma by Equilibrium Dialysis. Frozen plasma (stored at −80° C.) was thawed immediately in a 37° C. water bath. The working solutions of test compound and control compound were prepared in DMSO at 200 μM concentration, and the working solutions were spiked into plasma. The final concentration of compound was 1 μM. The final concentration of DMSO was 0.5%. Ketoconazole was used as positive control in the assay. The dialysis membranes were soaked in ultrapure water for 60 min to separate strips, then in 20% ethanol for 20 min, and then finally in dialysis buffer for 20 min. For equilibrium dialysis, each cell contained plasma sample (150 μL) and was dialyzed against an equal volume of dialysis buffer (PBS). The assay was performed in duplicate. The dialysis plate was sealed and incubated at 37° C. with 5% CO2 at 100 rpm for 6 h. At the end of incubation, samples (50 μL) from both buffer and plasma chambers were transferred to wells of a 96-well plate. Plasma (50 μL) was added to each buffer sample and an equal volume of PBS was added to the collected plasma sample. Cold acetonitrile (400 μL) containing internal standards (IS, 100 nM alprazolam, 200 nM labetalol, 200 nM imipramine and 2 μM ketoprofen) was added to precipitate protein and release compounds. Samples were vortexed for 2 min and centrifuged for 30 min at 3,220 g. An aliquot (100 μL) of the supernatant was diluted with ultra-pure H2O (100 μL), and the mixture was used for LC-MS/MS analysis. For stability determination in plasma, a spiked plasma sample (50 μL) was transferred to a new plate and incubated at 37° C., 5% CO2 for 0 and 6 h. At designated time points, PBS (50 μL) was added and mixed thoroughly, followed by the addition of room temperature quench solution [400 μL of acetonitrile containing internal standards (IS, 100 nM alprazolam, 200 nM labetalol, 200 nM imipramine and 2 μM ketoprofen)] to precipitate protein and release compounds. Samples were vortexed for 2 min and centrifuged for 30 min at 3,220 g. An aliquot (400 μL) of the supernatant was diluted by ultra-pure H2O, and the mixture was used for LC-MS/MS analysis. The concentrations of test compounds in the buffer and plasma chambers were determined from peak area ratios.

[2] = Stability in blood plasma; details: human plasma, 37° C.
Procedure: as §3

[3] = Plasma protein binding by equilibrium dialysis; details: human plasma
Procedure: as §3

[4] = Stability in blood plasma; details: mouse plasma, 37° C.
Procedure: Analysis of Plasma Protein Binding and Stability in Human and Mouse Blood Plasma by Equilibrium Dialysis. Frozen plasma (stored at −80° C.) was thawed immediately in a 37° C. water bath. The working solutions of test compound and control compound were prepared in DMSO at 200 μM concentration, and the working solutions were spiked into plasma. The final concentration of compound was 1 μM. The final concentration of DMSO was 0.5%. Ketoconazole was used as positive control in the assay. The dialysis membranes were soaked in ultrapure water for 60 min to separate strips, then in 20% ethanol for 20 min, and then finally in dialysis buffer for 20 min. For equilibrium dialysis, each cell contained plasma sample (150 μL) and was dialyzed against an equal volume of dialysis buffer (PBS). The assay was performed in duplicate. The dialysis plate was sealed and incubated at 37° C. with 5% CO2 at 100 rpm for 6 h. At the end of incubation, samples (50 μL) from both buffer and plasma chambers were transferred to wells of a 96-well plate. Plasma (50 μL) was added to each buffer sample and an equal volume of PBS was added to the collected plasma sample. […] The concentrations of test compounds in the buffer and plasma chambers were determined from peak area ratios.

RAJI lymphoma cells = test: MTS cell viability IC50 assay; type: cell-based; details: 72 h
Procedure: Cytotoxicity Results in Raji Non-Hodgkin's Lymphoma Cells. MTS experiments were then conducted to test the anti-proliferative effects of 7-aza-8,9-methylenedioxyindenoisoquinolines in Raji cells. Cells were incubated at 2-2000 nM of each drug for 72 h, and cell viabilities were quantified using the MTS assay. […] This potency trend generally correlated with the western blot results, in which G106 and G108 […] show weaker Myc downregulation.
(§1) MTS Cell Viability IC50 Assay. Drug solutions for MTS IC50 assays of suspension cell lines were made from DMSO stocks by serial-dilutions in 1×PBS (10010-031, Gibco). To set up treatments, drug solutions were plated in triplicates to 96-well tissue culture plates, to which cell-containing media was added to a total volume of 100 μL/well. 100%-viability controls were untreated cells. 2000 cells/well were plated for all suspension cell lines except 3000 cells/well for KMS-27 and 10000 cells/well for CHLA-32. Blanks were cell-free media. Drug treatments were maintained for 72 hr at 37° C. with 5% CO2. To quantify cells, CellTiter 96 AQueous MTS Reagent Powder (G1111, Promega) was dissolved and mixed with phenazine methosulfate (PMS, Sigma-Aldrich P9625) according to manufacturer's instructions. MTS/PMS mix ([…]) was added to treatment wells, 100%-viability control wells, and blank wells. Colors were developed at 37° C. with 5% CO2 for 4 h and absorbance at 490 nm was measured by BioTek Synergy 4 system. To obtain %-viability, A490 values were corrected by blank subtraction, normalized to 100%-viability control, and averaged. Average %-viabilities were plotted against drug dosages to obtain dose-response curves. […] For adherent cell lines, the MTS IC50 assays were conducted the same way as for suspension cell lines except for cell plating and drug treatment. For cell plating, 50 μL of 2000 cells were plated in triplicates to a 96-well tissue culture plate. Cells were allowed sufficient time to become adherent. Serial-diluted drug solutions were made the same way as in the MTS IC50 assays. To set up treatments, drug solutions were mixed with media to two-fold of the final concentrations, and 50 μL of such drug-media mix was then added to 50 μL of plated cells.

[5] = system: Myc protein in MCF-7 breast cancer cells; test: Western blot of Myc protein level; type: cell-based; details: MCF-7, 0.5, 1.0, 2.0 μM, 24 h
Procedure: Western blot. G-quadruplex formed in the MYC promoter functions as a transcriptional silencer. To determine the effects of 7-aza-8,9-methylenedioxyindenosioquinolines on the MYC protein level, a western blotting experiment was carried out using MCF-7 breast cancer cells. Western blot experiments were conducted to examine the downregulation effects of 7-aza-8,9-methylenedioxyindenosioquinolines on Myc protein level (FIG. 5). MCF-7 breast cancer cells were incubated for 24 h at 0, 0.5, 1.0, and 2.0 μM of G-101-108.
Western Blotting. MCF-7 cells were grown and treated in 6-well tissue culture plates. After collection, cells were suspended in 140 μL lysis buffer containing 1× RIPA buffer, 1× Protease Inhibitor Cocktail (A32965, Thermo Scientific), 1× NuPAGE LDS Sample Buffer (NP0007, Invitrogen), and 1× Sample Reducing Agent (NP0009, Invitrogen). The cell lysates were heated to 75° C. for 10 min. After sonication, 8 μL of each sample was loaded on a 4-15% Mini-PROTEAN TGX gel (4561086, Bio-Rad). […] Myc and GAPDH were detected with 1:1000-diluted monoclonal anti-Myc antibody (5605S, Cell Signaling Technology) and 1:2000-diluted monoclonal anti-GAPDH antibody (5174S, Cell Signaling Technology), respectively. Primary antibodies were detected by anti-Rabbit IgG HRP-linked antibody (7074S, Cell Signaling Technology). […]

human Topo1 = human Topo1 (Homo sapiens (Human), UniProt P11387); test: Topo1-mediated DNA cleavage assay; type: biochemical; details: 10 μM
Sequence of human Topo1 (P11387 whole entry): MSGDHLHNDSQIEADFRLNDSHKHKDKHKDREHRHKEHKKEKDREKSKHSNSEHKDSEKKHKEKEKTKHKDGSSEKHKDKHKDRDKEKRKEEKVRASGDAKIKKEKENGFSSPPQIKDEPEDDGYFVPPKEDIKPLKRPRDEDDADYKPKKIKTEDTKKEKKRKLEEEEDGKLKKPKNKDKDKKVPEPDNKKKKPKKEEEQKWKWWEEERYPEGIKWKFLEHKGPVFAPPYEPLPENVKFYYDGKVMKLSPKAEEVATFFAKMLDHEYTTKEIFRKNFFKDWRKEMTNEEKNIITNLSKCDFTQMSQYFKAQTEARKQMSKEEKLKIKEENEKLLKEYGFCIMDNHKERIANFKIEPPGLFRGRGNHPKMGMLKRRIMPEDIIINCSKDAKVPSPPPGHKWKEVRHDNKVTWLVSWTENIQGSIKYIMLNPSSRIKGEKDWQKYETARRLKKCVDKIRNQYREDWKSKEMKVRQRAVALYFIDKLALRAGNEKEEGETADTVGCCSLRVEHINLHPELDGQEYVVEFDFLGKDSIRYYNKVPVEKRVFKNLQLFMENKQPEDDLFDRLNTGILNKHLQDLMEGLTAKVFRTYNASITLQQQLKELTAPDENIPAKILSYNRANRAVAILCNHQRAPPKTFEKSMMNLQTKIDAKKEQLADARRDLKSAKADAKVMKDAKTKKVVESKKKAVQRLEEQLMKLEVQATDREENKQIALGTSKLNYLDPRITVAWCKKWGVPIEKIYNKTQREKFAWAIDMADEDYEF
Procedure: 7-Aza-8,9-methylenedioxyindenoisoquinoline compounds were examined for inhibitory effects on Topol-mediated DNA relaxation (FIG. 11A), and for Topol poison effect using Topol-Mediated DNA Cleavage Assay (FIG. 11B).
Topol-Mediated DNA Cleavage Assay. Human Topoisomerase I Assay Kit (TG1015-1A) from Topogen was used to examine the compounds for Topol poison effect. Assay was performed according to manufacturer's instructions. CPT at 10 μM was used as a positive control. […] Assay samples were incubated at 37° C. for 30 min followed by reaction termination with 10% SDS. This was followed by a 15 min Proteinase K digestion for 15 min at 37° C. to degrade Topo1 and a 1:1 volume chloroform:isoamyl alcohol DNA extraction. Samples were electrophoresed on a 1% agarose gel in TBE buffer for 2 h at 46 v. Both the agarose gel and buffer contained 0.5 μg/ml of ethidium bromide.

[6] = target: 3′-TAMRA-labeled MycG4 DNA; test: Fluorescence binding assay; details: 20° C., 100 mM K+ buffer, pH 7.0; read-out: Apparent Binding Affinity Kd, app
Procedure: Binding Affinity to the Myc G-Quadruplex. Binding affinity of eight 7-aza-8,9-methylenedioxyindenoisoquinolines to MycG4 was determined using a fluorescence binding assay with a 3′-TAMRA-labeled MycG4 DNA. Monitoring TAMRA emission upon drug titration afforded binding isotherms, from which apparent binding affinities, Kd,app, were derived.
Fluorescence-Based Binding Assays. Fluorescence-based binding assays were performed on a Jasco FP-8300 spectrofluorometer equipped with a temperature controller at 20° C. in a quartz cuvette with a 10 mm path length. 3′-TAMRA-labeled MycG4 DNA (Sigma-Aldrich) was diluted to 20 nM using a 75 mM KCl/25 mM potassium phosphate buffer, pH 7.0. […] Fluorescence intensity at 580 nm, the maximum for the free DNA, was plotted against drug:DNA ratio. The apparent binding dissociation constant, Kd,app, was derived for the binding of each compound. Using OriginPro software (OriginLab Corp., United States) the change in fluorescence intensity was fitted to a one-site binding equation,
where B0 is the initial fluorescence intensity, B is maximum change in fluorescence intensity, R is DNA concentration, and L is drug:DNA ratio.

TC-32 = test: MTS GI50, Myc-dependent panel; type: cell-based; details: Homo sapiens, TC-32, 72 h; read-out: GI50
Procedure: (§2) Cytotoxicity Results in Myc-dependent Cancer Cell Lines.
as §1

TC-71 = test: MTS GI50, Myc-dependent panel; type: cell-based; details: TC-71, 72 h; read-out: GI50
Procedure: as §2, §1

K-562 = test: MTS GI50, Myc-dependent panel; type: cell-based; details: Homo sapiens, K562; K-562, 72 h; read-out: GI50
Procedure: as §2, §1

CCRF-CRM = test: MTS GI50, Myc-dependent panel; type: cell-based; details: CCRF-CRM, 72 h; read-out: GI50
Procedure: as §2, §1

AMO-1 = test: MTS GI50, Myc-dependent panel; type: cell-based; details: Homo sapiens, AMO1; AMO-1, 72 h; read-out: GI50
Procedure: as §2, §1

L-363 = test: MTS GI50, Myc-dependent panel; type: cell-based; details: Homo sapiens, L-363, 72 h; read-out: GI50
Procedure: as §2, §1

RD-ES = test: MTS GI50, Myc-dependent panel; type: cell-based; details: 72 h, read-out: GI50
Procedure: as §2, §1

RS4;11 = test: MTS GI50, Myc-dependent panel; type: cell-based; details: Homo sapiens; RS4;11, 72 h; read-out: GI50
Procedure: as §2, §1

MDA-MB-231 = test: MTS GI50, Myc-dependent panel; type: cell-based; details: Homo sapiens, MDA-MB-231, 72 h; read-out: GI50
Procedure: as §2, §1

ARD = test: MTS GI50, Myc-dependent panel; type: cell-based; details: ARD, 72 h; read-out: GI50
Procedure: as §2, §1

Kasumi-1 = test: MTS GI50, Myc-dependent panel; type: cell-based; details: Homo sapiens; Kasumi-1, 72 h; read-out: GI50
Procedure: as §2, §1

SK-N-MC = test: MTS GI50, Myc-dependent panel; type: cell-based; details: Homo sapiens, 72 h, read-out: GI50
Procedure: as §2, §1

MCF-7 = test: MTS GI50, Myc-dependent panel; type: cell-based; details: Homo sapiens, MCF7; MCF-7, 72 h; read-out: GI50
Procedure: as §2, §1

MOLT-4 = test: MTS GI50, Myc-dependent panel; type: cell-based; details: Homo sapiens, MOLT-4, 72 h; read-out: GI50
Procedure: as §2, §1

THP-1 = test: MTS GI50, Myc-dependent panel; type: cell-based; details: Homo sapiens, THP-1, 72 h; read-out: GI50
Procedure: as §2, §1

RPMI-8226 = test: MTS GI50, Myc-dependent panel; type: cell-based; details: Homo sapiens, RPMI-8226, 72 h; read-out: GI50
Procedure: as §2, §1

CHLA-99 = test: MTS GI50, Myc-dependent panel; type: cell-based; details: CHLA-99, 72 h; read-out: GI50
Procedure: as §2, §1

HL-60 = test: MTS GI50, Myc-dependent panel; type: cell-based; details: Homo sapiens, HL-60, 72 h; read-out: GI50
Procedure: as §2, §1

CHLA-32 = test: MTS GI50, Myc-dependent panel; type: cell-based; details: CHLA-32, 72 h; read-out: GI50
Procedure: as §2, §1

KMS-27 = test: MTS GI50, Myc-dependent panel; type: cell-based; details: KMS-27, 72 h; read-out: GI50
Procedure: as §2, §1

TC-106 = test: MTS GI50, Myc-dependent panel; type: cell-based; details: TC-106, 72 h; read-out: GI50
Procedure: as §2, §1

For `CC(=O)N1CCN(c2ccc(OCC3COC(Cn4ccnc4)(c4ccc(Cl)cc4Cl)O3)cc2)CC1` (centres unmarked) [Ketoconazole], which “% Recovery” value [1] is on record?
The value was 93.23%.

What about the “% Bound” value ([1]; 1 μM, 6 h dialysis) of the same compound?
Its value is 99.26%.

And the “% Stability at 6 hrs” value [2]?
The value was 104.96%.

What about the “% Recovery” value [3] of the same compound?
Its value is 107.45%.

And the “% Bound” value ([3]; 1 μM, 6 h dialysis)?
The value was 98.01%.

What about the “% Stability at 6 hrs” value [4] of the same compound?
Its value is 88.82%.

Which IC50 (RAJI lymphoma cells; RAJI) does the source give for `COc1cc2c3c(n(CCCN4CCCC4)c(=O)c2cc1OC)-c1nc2c(cc1C3=O)OCO2` [G108, 2,3-Dimethoxy-6-(3-(pyrrolidin-1-yl)propyl)-5H-[1,3]dioxolo[4″,5″:5′,6′]pyrido[3′,2′:4,5]cyclopenta[1,2-c]isoquinoline-5,12(6H)-dione] here?
The IC50 was 1710 nM.

What about the “Myc protein level (Western blot)” value [5] of the same compound?
The value was “weak Myc downregulation”.

And the “inhibition of DNA relegation (Top1 poison effect)” value (human Topo1)?
The value was “minimal effects on DNA relegation”.

Which IC50 (RAJI lymphoma cells; Homo sapiens, Raji) does the source give for `COc1cc2c3c(n(CCCn4ccnc4)c(=O)c2cc1OC)-c1cc2c(cc1C3=O)OCO2` [LMP776, indimitecan] here?
The IC50 was 92 nM.

And the Kd [6]?
The Kd was 69 nM.

What about the GI50 (TC-32) of the same compound?
Its GI50 is 179 nM.

And the GI50 (TC-71)?
The GI50 was 232 nM.

And the GI50 (K-562)?
Its GI50 is 341 nM.

And the GI50 (CCRF-CRM)?
The GI50 was 70 nM.

What about the GI50 (AMO-1) of the same compound?
The GI50 was 191 nM.

What about the GI50 (L-363) of the same compound?
Its GI50 is 53 nM.

What about the GI50 (RD-ES) of the same compound?
Its GI50 is 227 nM.

What about the GI50 (RS4;11) of the same compound?
The GI50 was 59 nM.

And the GI50 (MDA-MB-231)?
Its GI50 is 329 nM.

And the GI50 (ARD)?
Its GI50 is 33 nM.

And the GI50 (Kasumi-1)?
The GI50 was 533 nM.

What about the GI50 (SK-N-MC) of the same compound?
Its GI50 is 225 nM.

What about the GI50 (MCF-7) of the same compound?
Its GI50 is > 2000 nM.

What about the GI50 (MOLT-4) of the same compound?
Its GI50 is 42 nM.

And the GI50 (THP-1)?
Its GI50 is 273 nM.

And the GI50 (RPMI-8226)?
Its GI50 is 139 nM.

And the GI50 (CHLA-99)?
The GI50 was 276 nM.

What about the GI50 (HL-60) of the same compound?
Its GI50 is 894 nM.

What about the GI50 (CHLA-32) of the same compound?
The GI50 was 93 nM.

What about the GI50 (KMS-27) of the same compound?
Its GI50 is 127 nM.

What about the GI50 (TC-106) of the same compound?
The GI50 was 250 nM.

Source: patent US20240287089A1, “Preparation and Uses of 7-Azaindenoisoquinolines” (Purdue Research Foundation, priority 0001, published 2024)
